Here are results for 5 compounds from patent US20170319501A1, “Oral Pharmaceutical Dosage Forms” (DURECT CORPORATION, priority 2007, published 2017).

A short description of data set [1]: Solubility of the active agent in Triacetin and in water (stated). Format: physicochemical.
Data set [2] in a line: Thermal gravimetric analysis of oxycodone base and oxycodone HCl. Format: physicochemical. As to the method:
Initially, thermal gravimetric analysis was used to measure the weight loss of oxycodone base and oxycodone HC1 in order to determine the correct temperature to conduct the volatilization study. Oxycodone base was subjected to increasing temperature conditions (30 to 350° C.) at a ramping rate of 20° C./min. Vaporization occurred above 200° C. and was complete at 310° C. Vaporization of oxycodone HCl (28 to 400° C.) was analogous to that of the free base up to approximately 300° C. after which significant decomposition of the salt form occurred. Based on these observations, a temperature of 280° C. was selected for this study. This temperature is above the melting point of oxycodone (to ensure adequate drug vaporization) and below 300° C. (to limit decomposition of the salt form). A maximum exposure time of 10 minutes was selected based on pre-test observations that little additional oxycodone was recovered beyond that time point.

Data set [3] can be described thus: Preliminary in vitro volatilization test on hot plate (Example 4a). The format is physicochemical. As to conditions: 40 mg sample; for Oxycodone Collected (in mg), total: total of 4 time points. An excerpt: In order to further assess the abuse-resistance performance of the dosage forms of the present invention, the following in vitro volatilization test was developed. In particular, intentional abuse of controlled release pharmaceutical dosage forms may alternatively be carried out by volatilization (smoking, or free-basing) techniques that can liberate active agent (in immediately active form) from commercially available controlled release carrier systems. Accordingly, a preliminary in vitro volatilization test was developed in order to assess: (1) whether oxycodone free base was more volatile than the salt (HCl) form; and (2) whether the abuse-resistant dosage forms produced according to the instant invention can prevent inhalation abuse through volatilization.
Each petri dish was fitted with a watch glass as a cover, and the covered test dishes were placed on a hot plate (setting 10). After 30 seconds each watch glass was replaced with a fresh watch glass, and this step was repeated three times (to obtain 4 time points). Any residue deposited on the bottom side of the test watch glasses was carefully transferred with an Alpha Swab (TX 761) into 40/60 ethanol/0.005M HCl solution, and the concentration of oxycodone solution was determined by HPLC. The observations taken during the test were as follows. […] It was noted that vaporized drug (and solvents where present) escaped during each change of the watch glass, which may be at least partially responsible for the low recovery noted in the HPLC results below. […] The HPLC results obtained in this Example 4a are provided below in Table 30.

For data set [4] the following is noted: intravenous bolus dosing, human, open literature data; cited from earlier work.

Consider `COc1ccc2c3c1O[C@H]1C(=O)CC[C@@]4(O)[C@@H](C2)N(C)CC[C@]314` [oxycodone free base, oxycodone], for which, in data set [1], the “solubility in Triacetin” value is recorded as “high solubility in Triacetin” and the solubility in water entry is “low water solubility”. In data set [2] (ramping rate 20° C./min), the “temperature above which vaporization occurred” value was “above 200 °C” and the “temperature at which vaporization was complete” value amounted to 310 °C.
For `COc1ccc2c3c1O[C@H]1C(=O)CC[C@@]4(O)[C@@H](C2)N(C)CC[C@]314.Cl` [oxycodone API (HCl salt form)], the “Oxycodone Collected” value in data set [3] (time point 0.5 minutes) is on record as 1.7202 mg; in data set [3] (time point 1.0 minutes), 0.4086 mg; in data set [3] (time point 1.5 minutes), 0.1236 mg; in data set [3] (time point 2.0 minutes), 0.0270 mg. The “Oxycodone Collected (in mg), total” value in data set [3] amounted to 2.2794 mg.
`C[C@H](N)Cc1ccccc1` [d-amphetamine]: in data set [4], the “unit impulse response parameter A” value is listed as 98.3±6.01, the “unit impulse response parameter B” value is on record as 28.2±0.56, the “unit impulse response parameter α” value is 9.65±0.64 and the “unit impulse response parameter β” value is 6.31×10^−2±3.78×10^−3.
As for `COc1ccc2c3c1O[C@H]1C(=O)CC[C@@]4(O)[C@@H](C2)N(C)CC[C@]314` [oxycodone API (free base form)], the “Oxycodone Collected” value in data set [3] (time point 0.5 minutes) is given as 1.4730 mg; in data set [3] (time point 1.0 minutes), 7.2666 mg; in data set [3] (time point 1.5 minutes) it was 0.7356 mg; in data set [3] (time point 2.0 minutes) it was 0.7050 mg. Further, in data set [3], the “Oxycodone Collected (in mg), total” value is 10.1802 mg.
For the compound `COc1ccc2c3c1O[C@H]1C(=O)CC[C@@]4(O)[C@@H](C2)N(C)CC[C@]314.Cl` [oxycodone in salt form, oxycodone HCl], in data set [1], the “solubility in Triacetin” value is recorded as “low solubility in Triacetin” and the solubility in water entry is listed as “high solubility in water”. Also, the “temperature after which significant decomposition occurred” value in data set [2] (28 to 400° C.) was “approximately 300 °C”.
